From patent US10738028B2, “Spiro three-membered ring, spiro five-membered ring peptide deformylase inhibitor and use thereof in antibacteria and anti-tumor” (priority 2016, dated 2020)

Experiments:
Type in all cases: cell-based
[1] = test system: Enterococcus faecalis (EFA); experiment: MIC, two-fold agar dilution (CLSI), clinical isolates
How it was run: (§1)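 Following the American Clinical and Laboratory Standards Institute procedure, agar two-fold dilution served to determine minimum inhibitory concentrations.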

[2] = test system: Enterococcus faecium (EFM); experiment: as above
How it was run: as §1

[3] = test system: Escherichia coli (including ESBLs, non-ESBLs); experiment: as above
How it was run: as §1

[4] = test system: Moraxella catarrhalis (BCA); experiment: as above
How it was run: as §1

[5] = test system: Streptococcus pneoumoniae (SPN); experiment: as above
How it was run: as §1

[6] = test system: methicillin-resistant Staphylococcus aureus (MRSA); experiment: as above
How it was run: as §1

[7] = test system: methicillin-resistant Staphylococcus epidermidis (MRSE); experiment: as above
How it was run: as §1

[8] = test system: methicillin-sensitive Staphylococcus aureus (MSSA); experiment: as above
How it was run: as §1

[9] = test system: methicillin-sensitive Staphylococcus epidermidis (MSSE); experiment: as above
How it was run: as §1

[10] = test system: HCT-116 colorectal cancer cell line; experiment: CCK-8 proliferation inhibition; details: 72 hours, CCK-8
How it was run: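 Growth inhibition is read by CCK-8 (1:10 dilution) after 72 h of compound exposure. HCT-116 cells grow in McCoy's 5A containing 10% newborn bovine serum at 2000 cells/well, with 1‰ DMSO as vehicle control.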

[11] = test system: A549 lung cancer cell line; experiment: CCK-8 proliferation inhibition
How it was run: (§2)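 Plating at 2000 cells/well, then incubation overnight at 37° C. Next, a range of compound concentrations for 72 hours (control 1‰ DMSO). Finally, medium decanted and CCK-8 diluted 1:10 added.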

[12] = test system: BEL-7402 liver cancer cell line; experiment: CCK-8 proliferation inhibition
How it was run: as §2

[13] = test system: HL60 acute myeloid leukemia cell line; experiment: CCK-8 proliferation inhibition; details: Homo sapiens, HL-60, 72 hours
How it was run: as §2

[14] = test system: Hela cervical cancer cell line; experiment: CCK-8 proliferation inhibition; details: Homo sapiens, 72 hours
How it was run: as §2

[15] = test system: Jurkat T cell leukemia cell line; experiment: CCK-8 proliferation inhibition; details: Homo sapiens, 72 hours
How it was run: as §2

[16] = test system: MCF-7 breast cancer cell line; experiment: CCK-8 proliferation inhibition; details: Homo sapiens, MCF7, 72 hours
How it was run: as §2

[17] = test system: MGC-803 gastric cancer cell line; experiment: CCK-8 proliferation inhibition
How it was run: as §2

[18] = test system: PC3 prostate cancer cell line; experiment: CCK-8 proliferation inhibition; details: 72 hours
How it was run: as §2

[19] = test system: SAOS-2 osteosarcoma cell line; experiment: CCK-8 proliferation inhibition; details: Homo sapiens, 72 hours, read-out: IC50 Steosarcoma SAOS-2
How it was run: as §2

[20] = MIC in vitro anti-bacterial experiments, Gram-positive bacteria; details: lowest MIC reached; read-out: minimum inhibitory concentration against Gram-positive bacteria
How it was run: as §1

[21] = concentration of 30 μM, 72 hours, 30 µM

O=C(C[C@@H](CC1CCCC1)C(=O)N1CC2(CC2)C[C@H]1C(=O)Nc1ccc(F)cn1)NO [Example 64]
Anti-bacterial activity (MIC), strain EFA 15-1 ([1]; clinical isolate EFA 15-1): 32 µg/mL
Anti-bacterial activity (MIC), strain EFA 15-2 ([1]; clinical isolate EFA 15-2): 32 µg/mL
Anti-bacterial activity (MIC), strain EFA 15-3 ([1]; clinical isolate EFA 15-3): 32 µg/mL
Anti-bacterial activity (MIC), strain EFA 15-4 ([1]; clinical isolate EFA 15-4): 32 µg/mL
Anti-bacterial activity (MIC), strain EFA 15-5 ([1]; clinical isolate EFA 15-5): 32 µg/mL
Anti-bacterial activity (MIC), strain EFA 15-6 ([1]; clinical isolate EFA 15-6): 32 µg/mL
Anti-bacterial activity (MIC), strain EFA 15-9 ([1]; clinical isolate EFA 15-9): 4 µg/mL
Anti-bacterial activity (MIC), strain EFM 15-1 ([2]; clinical isolate EFM 15-1): 32 µg/mL
Anti-bacterial activity (MIC), strain EFM 15-2 ([2]; clinical isolate EFM 15-2): 32 µg/mL
Anti-bacterial activity (MIC), strain EFM 15-3 ([2]; clinical isolate EFM 15-3): 32 µg/mL
Anti-bacterial activity (MIC), strain EFM 15-4 ([2]; clinical isolate EFM 15-4): 1 µg/mL
Anti-bacterial activity (MIC), strain EFM 15-5 ([2]; clinical isolate EFM 15-5): 1 µg/mL
Anti-bacterial activity (MIC), strain EFM 15-6 ([2]; clinical isolate EFM 15-6): 1 µg/mL
Anti-bacterial activity (MIC), strain ECO+ 15-1 ([3]; clinical isolate ECO+ 15-1): 16 µg/mL
Anti-bacterial activity (MIC), strain ECO+ 15-2 ([3]; clinical isolate ECO+ 15-2): 32 µg/mL
Anti-bacterial activity (MIC), strain ECO+ 15-3 ([3]; clinical isolate ECO+ 15-3): 16 µg/mL
Anti-bacterial activity (MIC), strain ECO+ 15-4 ([3]; clinical isolate ECO+ 15-4): 16 µg/mL
Anti-bacterial activity (MIC), strain ECO− 15-1 ([3]; clinical isolate ECO− 15-1): 16 µg/mL
Anti-bacterial activity (MIC), strain ECO− 15-2 ([3]; clinical isolate ECO− 15-2): 16 µg/mL
Anti-bacterial activity (MIC), strain ECO− 15-3 ([3]; clinical isolate ECO− 15-3): 32 µg/mL
Anti-bacterial activity (MIC), strain ECO− 15-4 ([3]; clinical isolate ECO− 15-4): 16 µg/mL
Anti-bacterial activity (MIC), strain BCA 14-1 ([4]; clinical isolate BCA 14-1): 0.25 µg/mL
Anti-bacterial activity (MIC), strain BCA 14-4 ([4]; clinical isolate BCA 14-4): 1 µg/mL
Anti-bacterial activity (MIC), strain BCA 14-5 ([4]; clinical isolate BCA 14-5): 1 µg/mL
Anti-bacterial activity (MIC), strain BCA 14-6 ([4]; clinical isolate BCA 14-6): 1 µg/mL
Anti-bacterial activity (MIC), strain BCA 14-7 ([4]; clinical isolate BCA 14-7): 1 µg/mL
Anti-bacterial activity (MIC), strain BCA 14-8 ([4]; clinical isolate BCA 14-8): 0.125 µg/mL
Anti-bacterial activity (MIC), strain BCA 14-10 ([4]; clinical isolate BCA 14-10): 0.125 µg/mL
Anti-bacterial activity (MIC), strain SPN 16-2 ([5]; clinical isolate SPN 16-2): 0.125 µg/mL
Anti-bacterial activity (MIC), strain SPN 16-4 ([5]; clinical isolate SPN 16-4): 0.125 µg/mL
Anti-bacterial activity (MIC), strain MRSA 15-1 ([6]; clinical isolate MRSA 15-1): 0.03 µg/mL
Anti-bacterial activity (MIC), strain MRSA 15-2 ([6]; clinical isolate MRSA 15-2): 0.06 µg/mL
Anti-bacterial activity (MIC), strain MRSA 15-3 ([6]; clinical isolate MRSA 15-3): 0.03 µg/mL
Anti-bacterial activity (MIC), strain MRSA 15-4 ([6]; clinical isolate MRSA 15-4): 0.06 µg/mL
Anti-bacterial activity (MIC), strain MRSE 15-1 ([7]; clinical isolate MRSE 15-1): 0.06 µg/mL
Anti-bacterial activity (MIC), strain MRSE 15-2 ([7]; clinical isolate MRSE 15-2): 0.06 µg/mL
Anti-bacterial activity (MIC), strain MRSE 15-3 ([7]; clinical isolate MRSE 15-3): 0.06 µg/mL
Anti-bacterial activity (MIC), strain MRSE 15-7 ([7]; clinical isolate MRSE 15-7): 0.06 µg/mL
Anti-bacterial activity (MIC), strain MSSA 15-3 ([8]; clinical isolate MSSA 15-3): 0.06 µg/mL
Anti-bacterial activity (MIC), strain MSSA 15-4 ([8]; clinical isolate MSSA 15-4): 0.03 µg/mL
Anti-bacterial activity (MIC), strain MSSA 15-5 ([8]; clinical isolate MSSA 15-5): 0.03 µg/mL
Anti-bacterial activity (MIC), strain MSSA 15-6 ([8]; clinical isolate MSSA 15-6): 16 µg/mL
Anti-bacterial activity (MIC), strain MSSE 15-3 ([9]; clinical isolate MSSE 15-3): 0.03 µg/mL
Anti-bacterial activity (MIC), strain MSSE 15-4 ([9]; clinical isolate MSSE 15-4): 0.06 µg/mL
Anti-bacterial activity (MIC), strain MSSE 15-5 ([9]; clinical isolate MSSE 15-5): 0.06 µg/mL
Anti-bacterial activity (MIC), strain MSSE 15-6 ([9]; clinical isolate MSSE 15-6): > 0.008 µg/mL
IC50 ([10]; Homo sapiens, HCT-116): 4.88 µM
HCT116 inhibition rate/% ([10]; concentration of 30 μM, 30 µM): 87%
inhibition at 30 µM ([11]; Homo sapiens, A549, 72 h, concentration of 30 μM): > 50%
IC50 ([11]; Homo sapiens, A549, 72 hours): 4.86 µM
Inhibition of proliferation, Lung cancer A549 [11, 21]: 61%
IC50 ([12]; Homo sapiens, Bel-7402, 72 hours): 5 µM
Inhibition of proliferation, Liver cancer BEL-7402 [12, 21]: 81%
IC50 [13]: 1.21 µM
IC50 [14]: 11.5 µM
IC50 [15]: 7.61 µM
IC50 [16]: 6.62 µM
inhibition at 30 µM ([17]; Homo sapiens, MGC-803, 72 h, concentration of 30 μM): > 50%
IC50 ([17]; Homo sapiens, MGC-803, 72 hours): 6.11 µM
Inhibition of proliferation, Gastric cancer MGC-803 [17, 21]: 63%
IC50 [18]: 6.17 µM
IC50 [19]: 2 µM
MIC [20]: < 0.008 µg/mL
